From patent US20210198647A1, “Enhancers of Neurolysin Activity” (Texas Tech University System, priority 2018, published 2021)
Marks after values point to notes of the source that are not given here. Square brackets hold non-standard residues; d marks the D form. Peptide text beside a SMILES is read from it. Tyr(3-NO2) = N[CH](Cc1ccc(O)c([N+](=O)[O-])c1)C(=O)O

Assays:
[1] = molecular target: thimet oligopeptidase (TOP) (Homo sapiens, UniProt P52888); assay: Peptidase selectivity: quenched fluorescent substrate hydrolysis by TOP; conditions: for inhibition at 300 µM: read-out: inhibited activity of TOP by
Sequence of thimet oligopeptidase (TOP) (P52888 whole entry): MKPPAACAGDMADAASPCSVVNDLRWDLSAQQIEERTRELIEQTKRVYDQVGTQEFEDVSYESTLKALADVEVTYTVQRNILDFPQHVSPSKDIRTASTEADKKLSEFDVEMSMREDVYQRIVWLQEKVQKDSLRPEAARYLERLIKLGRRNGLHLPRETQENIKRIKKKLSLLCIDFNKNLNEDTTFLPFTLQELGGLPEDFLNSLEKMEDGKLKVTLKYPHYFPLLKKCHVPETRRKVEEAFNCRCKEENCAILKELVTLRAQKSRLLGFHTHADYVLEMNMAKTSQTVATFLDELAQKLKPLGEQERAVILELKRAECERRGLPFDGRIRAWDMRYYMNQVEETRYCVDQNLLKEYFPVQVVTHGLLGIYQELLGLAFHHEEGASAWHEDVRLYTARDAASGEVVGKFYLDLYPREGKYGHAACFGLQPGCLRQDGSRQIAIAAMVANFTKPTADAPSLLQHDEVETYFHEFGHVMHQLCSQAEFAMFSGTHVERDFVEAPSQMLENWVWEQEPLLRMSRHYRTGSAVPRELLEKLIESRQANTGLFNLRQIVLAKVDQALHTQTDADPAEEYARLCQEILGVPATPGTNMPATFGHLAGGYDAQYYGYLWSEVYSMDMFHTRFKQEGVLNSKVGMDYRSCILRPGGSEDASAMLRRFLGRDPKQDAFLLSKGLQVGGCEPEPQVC
Protocol: Activity of recombinant human TOP was assessed in the same way as for neurolysin, except that the assay was carried out in the presence of 0.1 mM dithiothreitol (37).

neprilysin (NEP) = molecular target: T1, neprilysin (NEP) (Homo sapiens, UniProt P08473); assay: Peptidase selectivity: quenched fluorescent substrate hydrolysis by NEP; type: biochemical; conditions: 300 μM compound; read-out: inhibited activity of NEP by
T1 construct: purchased R & D systems 1182-ZNC

[2] = molecular target: T2, human recombinant neurolysin (Homo sapiens, UniProt Q9BYT8); assay: Enzymatic assay: QFS hydrolysis by human recombinant neurolysin; type: biochemical
T2 construct: purchased R & D systems 3814-ZN
Protocol: Enzymatic assays—activity of neurolysin was measured in a continuous assay by documenting the increase in fluorescence occurring upon cleavage of a quenched fluorescent substrate (QFS) Mca-Pro-Leu-Gly-Pro-D-Lys(DNP)-OH (Bachem) (25,36). […] All assays were initiated by addition of QFS (100 μl assay volume in 96-well plates), and each experimental sample was present in duplicate.
Screening of test compounds—primary screening of top-ranked 40 compounds (received from NCI DTP) was carried out at 10 and 100 μM final assay concentrations. […] In all experiments, test compounds were incubated with neurolysin for 10 min at 37° C. before addition of the substrate to start the reaction. […]

[3] = molecular target: T3, rat recombinant neurolysin (Rattus norvegicus, UniProt P42676); assay: Enzymatic assay: QFS hydrolysis by rat recombinant neurolysin; type: biochemical; conditions: for Km value decreased by / Vmax increased by: 40 μM modulator; for Vmax: QFS hydrolysis; for activity at 10 µM: read-out: % activity at 10; for activity at 100 µM: read-out: % activity at (100); for % activity at 10: 10 μM compound; for % activity at 10 / % activity at (100): compared to vehicle control; for % activity at (100): 100 μM compound
T3 construct: polyhistidine (N); made in house; host or cells: Escherichia coli (pBAD/His vector)
T3 sequence (P42676 38-704): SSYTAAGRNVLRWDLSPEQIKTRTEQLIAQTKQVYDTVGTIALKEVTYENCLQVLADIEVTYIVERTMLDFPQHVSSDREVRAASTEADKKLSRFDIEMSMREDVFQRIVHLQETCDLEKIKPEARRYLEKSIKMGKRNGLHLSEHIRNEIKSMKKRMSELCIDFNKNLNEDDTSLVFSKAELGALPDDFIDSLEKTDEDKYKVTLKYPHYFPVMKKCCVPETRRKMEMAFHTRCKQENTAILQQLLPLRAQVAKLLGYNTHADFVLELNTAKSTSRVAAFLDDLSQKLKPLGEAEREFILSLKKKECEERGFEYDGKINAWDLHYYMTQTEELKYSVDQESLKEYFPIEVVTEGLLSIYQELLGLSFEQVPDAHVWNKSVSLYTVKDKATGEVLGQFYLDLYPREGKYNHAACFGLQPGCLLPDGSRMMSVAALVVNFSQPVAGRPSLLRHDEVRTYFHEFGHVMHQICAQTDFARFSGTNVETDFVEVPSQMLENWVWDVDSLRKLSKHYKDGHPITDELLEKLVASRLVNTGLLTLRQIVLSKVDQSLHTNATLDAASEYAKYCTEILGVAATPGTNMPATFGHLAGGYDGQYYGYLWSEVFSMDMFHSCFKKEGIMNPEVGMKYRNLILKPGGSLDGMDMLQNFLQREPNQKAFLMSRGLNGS
Protocol: Rat recombinant neurolysin—N-terminal polyhistidine tagged recombinant rat neurolysin was produced in Escherichia coli using a plasmid construct in pBAD/His vector system (Invitrogen) kindly provided by Dr. David W. Rodgers (University of Kentucky) (32,33). Bacterial culture was carried out in Terrific Broth in 2 L Erlenmeyer flasks using an incubator shaker (1-2400, New Brunswick Scientific). Expression was induced by addition of arabinose (1 mM final concentration), the cells were pelleted 3 h after induction and stored at −80° C. freezer. Bacterial pellets were resuspended and lysed in phosphate buffer (20 mM NaH2PO4, 500 mM NaCl, 0.05% Tween-20, pH 8.0) containing 0.25 mg/ml lysozyme, 1 mM phenylmethylsulfonyl fluoride, 0.05 mg/ml DNAse and 0.02 mg/ml RNase, followed by brief sonication. After centrifugation (40,000×g, 20 min at 4° C.) the supernatant was applied to a Ni-NTA Superflow cartridge (Qiagen), followed by washing and elution of recombinant neurolysin with phosphate buffer containing 25 and 250 mM imidazole, respectively. The eluted protein was further purified by size exclusion chromatography using a TSK gel BioAssist G2SWxl column (Tosoh bioscience) in AKTA Purifier FPLC system (GE Healthcare). […] Specific activity of recombinant neurolysin was determined by an enzymatic assay described below.
All assays were initiated by addition of QFS (100 μl assay volume in 96-well plates), and each experimental sample was present in duplicate.
In all experiments, test compounds were incubated with neurolysin for 10 min at 37° C. before addition of the substrate to start the reaction. All test compounds were dissolved in DMSO at 10 to 50 mM stock concentrations.
Statistical Analyses—statistical analyses and curve fitting were conducted with GraphPad Prism 6.0 software. For each enzymatic reaction, slope of the line which represents the initial velocity (Vo) for the reaction progress curve was calculated using the liner regression model of the software (Vo=Slope=Δ fluorescent intensity of the reaction product/Δ time). EC50 values for the modulators were calculated by fitting initial velocity values for hydrolysis of QFS by neurolysin in the presence of varying concentrations of a modulator into a nonlinear regression model for the three-parameter log(stimulator) vs. response equation [Y=Bottom+(Top−Bottom)/(1+10^((Log EC50−X)))].

[4] = molecular target: T4, angiotensin converting enzyme 2 (ACE2) (Homo sapiens, UniProt Q9BYF1); assay: Peptidase selectivity: quenched fluorescent substrate hydrolysis by ACE2; type: biochemical; conditions: for inhibition at 300 µM: 300 μM compound, read-out: inhibited activity of ACE2 by
T4 construct: purchased R & D systems 933-ZN
T4 sequence (Q9BYF1 18-805): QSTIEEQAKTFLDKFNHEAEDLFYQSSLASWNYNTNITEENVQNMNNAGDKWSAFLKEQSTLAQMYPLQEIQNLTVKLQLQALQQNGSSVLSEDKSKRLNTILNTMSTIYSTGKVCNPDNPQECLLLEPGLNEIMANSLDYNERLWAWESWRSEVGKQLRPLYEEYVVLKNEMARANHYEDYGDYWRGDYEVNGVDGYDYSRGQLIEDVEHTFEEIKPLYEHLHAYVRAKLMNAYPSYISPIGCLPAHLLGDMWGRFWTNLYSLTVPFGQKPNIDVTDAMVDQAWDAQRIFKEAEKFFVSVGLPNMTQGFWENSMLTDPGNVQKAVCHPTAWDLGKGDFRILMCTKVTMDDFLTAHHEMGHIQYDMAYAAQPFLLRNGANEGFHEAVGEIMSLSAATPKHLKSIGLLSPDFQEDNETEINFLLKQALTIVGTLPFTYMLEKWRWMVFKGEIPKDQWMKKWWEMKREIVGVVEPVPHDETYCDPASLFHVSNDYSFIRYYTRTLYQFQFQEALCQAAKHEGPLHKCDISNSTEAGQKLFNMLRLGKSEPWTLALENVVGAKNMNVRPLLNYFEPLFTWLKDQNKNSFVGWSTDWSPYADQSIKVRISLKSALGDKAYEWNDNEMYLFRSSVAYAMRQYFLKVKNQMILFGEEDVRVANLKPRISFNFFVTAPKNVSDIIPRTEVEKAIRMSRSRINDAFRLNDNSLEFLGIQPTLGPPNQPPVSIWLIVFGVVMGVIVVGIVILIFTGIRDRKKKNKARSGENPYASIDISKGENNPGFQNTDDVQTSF

mouse brain neurolysin = molecular target: T5, mouse brain neurolysin (Mus musculus, UniProt Q91YP2); assay: Enzymatic assay: QFS hydrolysis by mouse brain-purified neurolysin; type: biochemical
T5 construct: P10 mouse forebrains were used for purification of native neurolysin; from tissue; host or cells: P10 mouse forebrain, soluble fraction, size-exclusion fraction
T5 sequence (Q91YP2 38-704): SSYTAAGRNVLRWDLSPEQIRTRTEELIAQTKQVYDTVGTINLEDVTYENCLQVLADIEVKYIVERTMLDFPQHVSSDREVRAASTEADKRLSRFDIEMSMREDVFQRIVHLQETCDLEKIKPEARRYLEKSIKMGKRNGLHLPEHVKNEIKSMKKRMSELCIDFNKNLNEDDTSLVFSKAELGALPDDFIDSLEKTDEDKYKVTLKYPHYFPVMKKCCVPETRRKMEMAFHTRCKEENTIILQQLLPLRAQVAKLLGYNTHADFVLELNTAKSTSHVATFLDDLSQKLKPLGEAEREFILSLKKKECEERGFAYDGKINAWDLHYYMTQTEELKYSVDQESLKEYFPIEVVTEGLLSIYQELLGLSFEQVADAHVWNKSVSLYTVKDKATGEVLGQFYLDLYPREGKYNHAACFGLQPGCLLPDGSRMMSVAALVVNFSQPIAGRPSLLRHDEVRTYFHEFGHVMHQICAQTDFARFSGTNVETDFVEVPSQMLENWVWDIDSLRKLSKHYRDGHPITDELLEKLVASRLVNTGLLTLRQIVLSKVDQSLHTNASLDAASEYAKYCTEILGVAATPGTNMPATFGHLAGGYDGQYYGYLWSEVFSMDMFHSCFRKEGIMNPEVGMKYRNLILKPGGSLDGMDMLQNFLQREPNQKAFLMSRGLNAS
Protocol: In brief, forebrains were homogenized in hypotonic buffer (20 mM NaPO4, pH 7.2) followed by gentle sonication and centrifugation (30 min at 48,000×g at 4° C.). The resulting supernatant was filtered through a 100 kDa cut-off centrifugal filtering unit and concentrated in a 30 kDa cut-off centrifugal filtering unit (Amicon Ultra; Millipore). Neurolysin was semi-purified from the concentrate by size exclusion chromatography using a Superdex 200 Increase 10/300 GL column (GE Healthcare) in AKTA Purifier FPLC system (GE Healthcare). Elution of neurolysin was tracked by the enzymatic assay described below, and the fraction with the highest neurolysin activity was directly used for the experiments.
Enzymatic assays—activity of neurolysin was measured in a continuous assay by documenting the increase in fluorescence occurring upon cleavage of a quenched fluorescent substrate (QFS) Mca-Pro-Leu-Gly-Pro-D-Lys(DNP)-OH (Bachem) (25,36). […]
Statistical Analyses—statistical analyses and curve fitting were conducted with GraphPad Prism 6.0 software. For each enzymatic reaction, slope of the line which represents the initial velocity (Vo) for the reaction progress curve was calculated using the liner regression model of the software (Vo=Slope=Δ fluorescent intensity of the reaction product/Δ time). […]

[5] = molecular target: T6, angiotensin converting enzyme (ACE) (Homo sapiens, UniProt P12821); assay: Peptidase selectivity: quenched fluorescent substrate hydrolysis by ACE; type: biochemical; conditions: for inhibition at 300 µM: 300 μM compound, read-out: inhibited activity of ACE by
T6 construct: purchased R & D systems 929-ZN
T6 sequence (P12821 30-1306): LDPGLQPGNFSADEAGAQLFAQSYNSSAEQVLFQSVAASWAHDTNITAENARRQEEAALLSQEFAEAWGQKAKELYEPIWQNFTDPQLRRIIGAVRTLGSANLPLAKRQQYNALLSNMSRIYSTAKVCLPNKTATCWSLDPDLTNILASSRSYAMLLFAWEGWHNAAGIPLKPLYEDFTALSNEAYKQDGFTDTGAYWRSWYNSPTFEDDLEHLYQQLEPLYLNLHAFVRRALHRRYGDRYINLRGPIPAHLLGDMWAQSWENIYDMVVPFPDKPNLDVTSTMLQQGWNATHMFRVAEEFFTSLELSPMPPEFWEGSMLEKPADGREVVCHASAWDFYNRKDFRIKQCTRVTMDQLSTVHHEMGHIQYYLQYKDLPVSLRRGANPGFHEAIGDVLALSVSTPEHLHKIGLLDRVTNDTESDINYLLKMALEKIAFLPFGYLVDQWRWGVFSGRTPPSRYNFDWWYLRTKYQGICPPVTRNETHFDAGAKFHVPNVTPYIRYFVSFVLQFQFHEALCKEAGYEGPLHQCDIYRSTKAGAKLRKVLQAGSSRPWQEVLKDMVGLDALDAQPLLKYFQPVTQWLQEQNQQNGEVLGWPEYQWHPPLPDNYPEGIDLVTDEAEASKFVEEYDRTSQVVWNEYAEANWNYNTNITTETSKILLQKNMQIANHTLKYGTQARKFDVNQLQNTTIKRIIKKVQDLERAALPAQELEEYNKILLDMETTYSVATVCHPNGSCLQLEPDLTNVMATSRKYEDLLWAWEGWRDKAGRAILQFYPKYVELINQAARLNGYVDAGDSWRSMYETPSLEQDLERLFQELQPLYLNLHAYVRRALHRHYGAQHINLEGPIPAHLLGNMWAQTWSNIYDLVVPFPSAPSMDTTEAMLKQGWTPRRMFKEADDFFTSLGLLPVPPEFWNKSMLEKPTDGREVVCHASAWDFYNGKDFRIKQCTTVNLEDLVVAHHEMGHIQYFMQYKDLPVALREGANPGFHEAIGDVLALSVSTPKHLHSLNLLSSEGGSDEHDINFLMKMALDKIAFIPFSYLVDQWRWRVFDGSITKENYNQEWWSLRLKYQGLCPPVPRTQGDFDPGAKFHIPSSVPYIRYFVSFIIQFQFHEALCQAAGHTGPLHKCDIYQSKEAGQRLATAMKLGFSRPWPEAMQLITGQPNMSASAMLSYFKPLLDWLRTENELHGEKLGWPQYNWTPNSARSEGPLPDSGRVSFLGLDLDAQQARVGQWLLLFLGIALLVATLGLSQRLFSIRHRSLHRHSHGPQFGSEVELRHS

[6] = Plasma and brain protein binding, rapid equilibrium dialysis (RED); type: in vitro ADME, mouse; conditions: mouse plasma; 500 ng/mL
Protocol: Plasma and Brain Protein Binding: The rapid equilibrium dialysis (RED) plate and single-use inserts with a membrane MWCO of 8 kDa and sealing tapes for 96-well plates were purchased from (Pierce Biotechnology, Thermo Fisher Scientific, Waltham, Mass.). Test compounds were dissolved in dimethyl sulfoxide and then diluted to 10 μg/mL with water for binding studies. The stock solutions (10 μg/mL) were added to mouse brain homogenates or plasma. The final concentration of the compounds for the equilibrium dialysis experiment was 500 ng/mL. The RED device was assembled according to the manufacturer's instructions. A 200 μL aliquot of plasma or brain homogenate spiked with 500 ng/mL of selected compound was added to the sample chamber of insert (donor) and 400 μL of DPBS was added to the buffer chamber of the dialysis membrane (receiver). Then, the base plate was covered with a sealing tape and was incubated at 37° C. on an orbital shaker at 250 rpm for 4 hours to achieve equilibrium. Compounds were evaluated in triplicate for each experiment. At the end of incubation, equal volumes from both donor and receiver chambers were taken and placed in separate microcentrifuge for content analysis using LC-MS/MS.

in vitro = conditions: mouse, plasma
Neurolysin (Nln) = molecular target: T7, Neurolysin (Nln) (Rattus norvegicus, UniProt P42676); assay: Nln activation in isolated enzyme assay (A50, Amax); type: biochemical; conditions: 95% CI in parentheses; for Amax (maximum % activation achieved): 100% = normal enzyme turnover
T7 construct: polyhistidine (N); made in house; host or cells: Escherichia coli (pBAD/His vector), if the rat enzyme of b61 was used
T7 sequence (P42676 38-704): as the sequence (P42676 38-704) above

[7] = system: co-culture of primary mouse astrocytes and immortalized mouse endothelial cells (bEnd3); assay: In vitro BBB permeability, apical to basolateral transport; type: in vitro ADME; conditions: 10 μg/mL, 37° C.
Protocol: The permeability coefficient (Pe) was calculated from the cleared volume of each compound versus time. Values represent the mean±SD of three measurements.
Mouse primary astrocytes were isolated from the cerebral cortices of one day old pups (CD-1 mice, Charles Rivers Laboratory) following a literature method.^36 After extracting the brain, cortices were separated, minced and placed in Hank's balanced salt solution (HBSS) without calcium and magnesium, supplemented with gentamycin (10 μg/m). […] The cell suspensions were seeded into a T75 flask and the medium was changed every 3 days for 10-14 days or until reaching confluency.
For bEnd3 and astrocyte co-culture, the Transwell filters ([…] pore size, 12-well; Corning, Lowell, Mass.) were used. First, the Transwell filter was inverted and astrocytes at a density of 150,000 cells/filter were seeded onto the abluminal side of the filter and allowed to adhere for 4 hours. Then the Transwell filter was inverted back and the cells were grown for 2 days in astrocyte medium. At the end of 48 hours, bEnd3 cells at a density of 50,000 cells/filter were seeded onto the upper/luminal side of the filter and the co-culture of astrocytes and bEnd3 cells were grown for an additional 8 days. The medium for both compartments were changed every other day according to literature proceedures.^37
The apparent permeability coefficient (Pe, in cm/min) was calculated according to the cleared volume of each time point, as previously described.^38,39
Permeability measurement for each compound was run for 120 minutes. The media was removed and transwells were rinsed and incubated with HBSS buffer at 37° C. for 30 minutes. […] Concentration of compounds was determined by LC-MS/MS. Since the blank Transwell insert itself (without cells) provides resistance to the passage of buffer and compound from the donor to receiver chamber, the permeability of each compound was also measured in a blank insert and the final permeability coefficient results were calculated by considering the permeability of each compound in a blank insert.

[8] = QFS 15 μM, absence of dynorphin A (1-13)
[9] = QFS 15 μM, presence of dynorphin A (1-13) 1 μM
[10] = QFS 25 μM, neurolysin 0.3 nM, 100% = no compound
[11] = concentration-response up to 300 μM

NC(Cc1c[nH]cn1)C(=O)NC(Cc1c[nH]cn1)C(=O)O (mixture of isomers) [NlnA#2, D,L-histidyl-D,L-histidine]
inhibition at 300 µM [1]: 15.6 ± 2.6% | inhibition at 300 µM (neprilysin (NEP)): 1.6 ± 2% | Emax [2]: 214% | Km value decreased by [3]: ~42.4% | Vmax increased by [3]: ~16.5% | Emax [3, 8]: 255% | Emax [3, 9]: 198% | Emax [3, 10]: 203% | Vmax ([3]; rNln + 40 μM modulator): 112.5* FLU/ng protein per min | Vmax ([3]; rNln + 100 μM modulator): 148.2*** FLU/ng protein per min | activity at 10 µM [3]: 122% | activity at 100 µM [3]: 206% | inhibition at 300 µM [4]: 10.9 ± 2.9% | Emax (mouse brain neurolysin): 258% | inhibition at 300 µM [5]: 12.2 ± 1.8%

N[C@@H](Cc1c[nH]cn1)C(=O)N[C@@H](Cc1c[nH]c2ccccc12)C(=O)O [Compound 4, Histidine-tryptophan]
fu in Plasma [6]: 0.93 ± 0.13 | half-life at 500 ng/mL (in vitro): > 5 h

N[C@@H](Cc1c[nH]cn1)C(=O)NCc1ccc2ccccc2c1 [Compound 10a, (S)-2-amino-3-(1H-imidazol-4-yl)-N-(naphthalen-2-ylmethyl)propanamide]
effect on activity of TOP (in words) [1, 11]: No appreciable inhibition | EC50 (Neurolysin (Nln); read-out: A50 (concentration required to activate Nln by 50%)): 4.4 µM | Amax (maximum % activation achieved) (Neurolysin (Nln)): 210.9 (191.7 to 231.9) %

N[C@@H](Cc1c[nH]cn1)C(=O)Nc1cccc2cccnc12 [Compound 11a, (S)-2-amino-3-(1H-imidazol-4-yl)-N-(quinolin-8-yl)propanamide]
permeability coefficient (Pe) [7]: 1.14±0.02×10^−3 cm/min | effect on activity of ACE2 (in words) [4, 11]: showed inhibition of ACE2 at high concentrations | Amax (maximum % activation achieved) (Neurolysin (Nln)): 252.4 (231.4 to 274.9) % | effect on activity of ACE (in words) [5, 11]: show inhibition of ACE at high concentration

CC(C)C(N)C(=O)NC(C(=O)NS(=O)(=O)c1ccc(N)cc1)C(C)C (stereo not drawn) [Compound 340049]
% activity at 10 ([3]; QFS 25 μM): 94% | % activity at (100) ([3]; QFS 25 μM): 52%

Cl.NC(=O)C(Cc1ccc(O)c([N+](=O)[O-])c1)NC(=O)C(N)Cc1ccccc1 (stereo not drawn) [Compound 343028] (H-Phe-[Tyr(3-NO2)]-NH2; configuration not given here)
% activity at 10 ([3]; QFS 25 μM): 98% | % activity at (100) ([3]; QFS 25 μM): 73%

CSCCC(N)[P+](=O)O (stereo not drawn) [Compound 359097]
% activity at 10 ([3]; QFS 25 μM): 87% | % activity at (100) ([3]; QFS 25 μM): 92%

O=C(O)CNC(=O)CNC(=O)c1ccc2ccccc2n1 [Compound 400844]
% activity at 10 ([3]; QFS 25 μM): 104% | % activity at (100) ([3]; QFS 25 μM): 84%

CC(NCCN(C)C)C1CC2CCCCN2C1 (stereo not drawn) [Compound 600947]
% activity at 10 ([3]; QFS 25 μM): 107% | % activity at (100) ([3]; QFS 25 μM): 105%

CCC1COc2nc(=O)c(C=NCCCN(C)C)c(N)n21 (stereo not drawn) [Compound 608820]
% activity at 10 ([3]; QFS 25 μM): 102% | % activity at (100) ([3]; QFS 25 μM): 108%

O=C1CSC(c2cccnc2)N1CCN1C(=O)CSC1c1cccnc1 (stereo not drawn) [Compound 615399]
% activity at 10 ([3]; QFS 25 μM): 108% | % activity at (100) ([3]; QFS 25 μM): 108%

NC1=C(O)/C(=N/NS(=O)(=O)c2ccccc2)C(c2ccc3c(c2)OCO3)O1 (stereo not drawn) [Compound 640354]
% activity at 10 ([3]; QFS 25 μM): 79% | % activity at (100) ([3]; QFS 25 μM): 76%

COC(=O)CCN1CCN(CCO)CC1C (stereo not drawn) [Compound 659264]
% activity at 10 ([3]; QFS 25 μM): 104% | % activity at (100) ([3]; QFS 25 μM): 107%

N[C@@H](Cc1c[nH]cn1)C(=O)N[C@@H](Cc1ccc(O)cc1)C(=O)O [NlnA#1, L-histidyl-L-tyrosine] (H-His-Tyr-OH)
inhibition at 300 µM [1]: 25.9 ± 0.7% | inhibition at 300 µM (neprilysin (NEP)): 2.9 ± 4.7% | Emax [2]: 204% | Km value decreased by [3]: ~43% | Vmax increased by [3]: ~29% | Emax [3, 8]: 292% | Emax [3, 9]: 238% | Emax [3, 10]: 235% | Vmax ([3]; rNln + 40 μM modulator): 124.2*** FLU/ng protein per min | Vmax ([3]; rNln + 100 μM modulator): 164.8*** FLU/ng protein per min | activity at 10 µM [3]: 121% | activity at 100 µM [3]: 226% | inhibition at 300 µM [4]: 13.4 ± 2.9% | Emax (mouse brain neurolysin): 190% | inhibition at 300 µM [5]: 22.6 ± 2.5%
